# Counter-ions that a name gives are not always drawn. Like-named read-outs stand apart in the source and are kept apart here.
# How the values were obtained:
# Assay in all cases: AK assay 384-well format, Prestwick library screening
# [1] = tested on: E. faecium; assay type: cell-based, Enterococcus faecium; details: 50 μM final drug concentration; for fold induction at 50 µM: Enterococcus faecium, 3 h; for AK-based Prestwick library screening result, E. faecium (fold increase in extracellular AK activity): positive cutoff 3-fold increase
# [2] = tested on: S. aureus strain USA300-0114; assay type: cell-based, Staphylococcus aureus; details: 50 μM final drug concentration; for fold induction at 50 µM: Staphylococcus aureus, USA300, 3 h; for AK-based Prestwick library screening result, S. aureus (fold increase in extracellular AK activity): positive cutoff 3-fold increase
# [3] = tested on: K. pneumoniae; assay type: cell-based, Klebsiella pneumoniae; details: 50 μM final drug concentration; for fold induction at 50 µM: Klebsiella pneumoniae, 3 h; for AK-based Prestwick library screening result, K. pneumoniae (fold increase in extracellular AK activity): positive cutoff 3-fold increase
# [4] = tested on: A. baumannii strain 98-37-09; assay type: cell-based, Acinetobacter baumannii; details: 50 μM final drug concentration; for fold induction at 50 µM: Acinetobacter baumannii, 983709, 3 h; for AK-based Prestwick library screening result, A. baumannii (fold increase in extracellular AK activity): positive cutoff 3-fold increase
# [5] = tested on: P. aeruginosa; assay type: cell-based, Pseudomonas aeruginosa; details: 50 μM final drug concentration; for fold induction at 50 µM: Pseudomonas aeruginosa, 3 h; for AK-based Prestwick library screening result, P. aeruginosa (fold increase in extracellular AK activity): positive cutoff 3-fold increase
# [6] = tested on: E. cloacae; assay type: cell-based, Enterobacter cloacae; details: 50 μM final drug concentration; for fold induction at 50 µM: Enterobacter cloacae, 3 h; for AK-based Prestwick library screening result, E. cloacae (fold increase in extracellular AK activity): positive cutoff 3-fold increase
# [7] = tested on: E. coli; assay type: cell-based, Escherichia coli; details: 50 μM final drug concentration; for fold induction at 50 µM: Escherichia coli, 3 h
# [8] = 384-well format, cutoff for positive-scoring molecules 3-fold increase, read-out: AK-based Prestwick Library Screening Results, E. faecium (increase in extracellular AK activity)
# [9] = 384-well format, cutoff for positive-scoring molecules 3-fold increase, read-out: AK-based Prestwick Library Screening Results, S. aureus (increase in extracellular AK activity)
# [10] = 384-well format, cutoff for positive-scoring molecules 3-fold increase, read-out: AK-based Prestwick Library Screening Results, K. pneumoniae (increase in extracellular AK activity)
# [11] = 384-well format, cutoff for positive-scoring molecules 3-fold increase, read-out: AK-based Prestwick Library Screening Results, A. baumannii (increase in extracellular AK activity)
# [12] = 384-well format, cutoff for positive-scoring molecules 3-fold increase, read-out: AK-based Prestwick Library Screening Results, P. aeruginosa (increase in extracellular AK activity)
# [13] = 384-well format, cutoff for positive-scoring molecules 3-fold increase, read-out: AK-based Prestwick Library Screening Results, E. cloacae (increase in extracellular AK activity)
# [14] = 384-well format, cutoff for positive-scoring molecules 3-fold increase, read-out: AK-based Prestwick Library Screening Results, E. coli (increase in extracellular AK activity)
# [15] = 384-well format, cutoff for positive-scoring molecules 3-fold increase
# [16] = planktonic, cutoff for positive-scoring molecules 3-fold increase, read-out: AK-based Prestwick Library Screening Results, E. faecium (fold increase in extracellular AK activity)
# [17] = planktonic, cutoff for positive-scoring molecules 3-fold increase, read-out: AK-based Prestwick Library Screening Results, S. aureus (fold increase in extracellular AK activity)
# [18] = planktonic, cutoff for positive-scoring molecules 3-fold increase, read-out: AK-based Prestwick Library Screening Results, K. pneumoniae (fold increase in extracellular AK activity)
# [19] = planktonic, cutoff for positive-scoring molecules 3-fold increase, read-out: AK-based Prestwick Library Screening Results, A. baumannii (fold increase in extracellular AK activity)
# [20] = planktonic, cutoff for positive-scoring molecules 3-fold increase, read-out: AK-based Prestwick Library Screening Results, P. aeruginosa (fold increase in extracellular AK activity)
# [21] = planktonic, cutoff for positive-scoring molecules 3-fold increase, read-out: AK-based Prestwick Library Screening Results, E. cloacae (fold increase in extracellular AK activity)
# [22] = planktonic, cutoff for positive-scoring molecules 3-fold increase, read-out: AK-based Prestwick Library Screening Results, E. coli (fold increase in extracellular AK activity)
smiles,measurement,setting,value
Nc1cc(N2CCCCC2)nc(N)[n+]1[O-] [Minoxidil],fold induction at 50 µM,[1]; [8],1
same,fold induction at 50 µM,[2]; [9],0.7
same,fold induction at 50 µM,[3]; [10],0.6
same,fold induction at 50 µM,[4]; [11],0.8
same,fold induction at 50 µM,[5]; [12],0.6
same,fold induction at 50 µM,[6]; [13],0.7
same,fold induction at 50 µM,[7]; [14],0.6
CC(C)NC[C@@H](O)COc1cccc2ccccc12.Cl [(R)-Propranolol hydrochloride],"AK-based Prestwick library screening result, E. faecium (fold increase in extracellular AK activity)",[1]; planktonic E. faecium,0.9
same,"AK-based Prestwick library screening result, S. aureus (fold increase in extracellular AK activity)",[2]; planktonic S. aureus,0.8
same,"AK-based Prestwick library screening result, K. pneumoniae (fold increase in extracellular AK activity)",[3]; planktonic K. pneumoniae,0.7
same,"AK-based Prestwick library screening result, A. baumannii (fold increase in extracellular AK activity)",[4]; planktonic A. baumannii,0.9
same,"AK-based Prestwick library screening result, P. aeruginosa (fold increase in extracellular AK activity)",[5]; planktonic P. aeruginosa,0.8
same,"AK-based Prestwick library screening result, E. cloacae (fold increase in extracellular AK activity)",[6]; planktonic E. cloacae,17.3
same,"AK-based Prestwick library screening result, E. coli (fold increase in extracellular AK activity)","[7]; planktonic E. coli, positive cutoff 3-fold increase",0.8
[H]/N=C(/N)NS(=O)(=O)c1ccc(N)cc1 [Sulfaguanidine],fold induction at 50 µM,[1]; [8],1
same,fold induction at 50 µM,[2]; [9],0.5
same,fold induction at 50 µM,[3]; [10],0.6
same,fold induction at 50 µM,[4]; [11],0.5
same,fold induction at 50 µM,[5]; [12],0.5
same,fold induction at 50 µM,[6]; [13],0.4
same,fold induction at 50 µM,[7]; [14],0.5
COc1ccc2c3c([nH]c2c1)[C@H]1C[C@H]2[C@H](C[C@@H](O)[C@H](OC)[C@H]2C(=O)O)CN1CC3.Cl [Reserpinic acid hydrochloride],"AK-based Prestwick library screening result, E. faecium (fold increase in extracellular AK activity)",[1]; planktonic E. faecium,0.9
same,"AK-based Prestwick library screening result, S. aureus (fold increase in extracellular AK activity)",[2]; planktonic S. aureus,0.6
same,"AK-based Prestwick library screening result, K. pneumoniae (fold increase in extracellular AK activity)",[3]; planktonic K. pneumoniae,0.7
same,"AK-based Prestwick library screening result, A. baumannii (fold increase in extracellular AK activity)",[4]; planktonic A. baumannii,0.8
same,"AK-based Prestwick library screening result, P. aeruginosa (fold increase in extracellular AK activity)",[5]; planktonic P. aeruginosa,0.8
same,"AK-based Prestwick library screening result, E. cloacae (fold increase in extracellular AK activity)",[6]; planktonic E. cloacae,1.0
same,"AK-based Prestwick library screening result, E. coli (fold increase in extracellular AK activity)","[7]; planktonic E. coli, […]",0.9
Cc1cccc(Nc2ccccc2C(=O)O)c1C [Mefenamic acid],fold induction at 50 µM,"[1]; planktonic E. faecium, 384-well, cutoff for positive-scoring molecules 3-fold increase, read-out: AK-based Prestwick Library Screening Results: E. faecium (increase in extracellular AK activity)",0.9
same,fold induction at 50 µM,"[2]; planktonic S. aureus, 384-well, cutoff for positive-scoring molecules 3-fold increase, read-out: AK-based Prestwick Library Screening Results: S. aureus (increase in extracellular AK activity)",0.7
same,fold induction at 50 µM,"[3]; planktonic K. pneumoniae, 384-well, cutoff for positive-scoring molecules 3-fold increase, read-out: AK-based Prestwick Library Screening Results: K. pneumoniae (increase in extracellular AK activity)",0.8
same,fold induction at 50 µM,"[4]; planktonic A. baumannii, 384-well, cutoff for positive-scoring molecules 3-fold increase, read-out: AK-based Prestwick Library Screening Results: A. baumannii (increase in extracellular AK activity)",1.2
same,fold induction at 50 µM,"[5]; planktonic P. aeruginosa, 384-well, cutoff for positive-scoring molecules 3-fold increase, read-out: AK-based Prestwick Library Screening Results: P. aeruginosa (increase in extracellular AK activity)",0.9
same,fold induction at 50 µM,"[6]; planktonic E. cloacae, 384-well, cutoff for positive-scoring molecules 3-fold increase, read-out: AK-based Prestwick Library Screening Results: E. cloacae (increase in extracellular AK activity)",1.6
same,fold induction at 50 µM,"[7]; planktonic E. coli, 384-well, cutoff for positive-scoring molecules 3-fold increase, read-out: AK-based Prestwick Library Screening Results: E. coli (increase in extracellular AK activity)",0.9
C[C@H](CCC(=O)NCC(=O)O)[C@H]1CC[C@H]2[C@@H]3[C@H](O)C[C@@H]4C[C@H](O)CC[C@]4(C)[C@H]3C[C@H](O)[C@]12C [Glycocholic acid],fold induction at 50 µM,"[1]; planktonic, cutoff for positive 3-fold increase, read-out: AK-based Prestwick Library Screening Results, E. faecium (fold increase in extracellular AK activity)",1.1
same,fold induction at 50 µM,"[2]; planktonic, cutoff for positive 3-fold increase, read-out: AK-based Prestwick Library Screening Results, S. aureus (fold increase in extracellular AK activity)",1.2
same,fold induction at 50 µM,"[3]; planktonic, cutoff for positive 3-fold increase, read-out: AK-based Prestwick Library Screening Results, K. pneumoniae (fold increase in extracellular AK activity)",1
same,fold induction at 50 µM,"[4]; planktonic, cutoff for positive 3-fold increase, read-out: AK-based Prestwick Library Screening Results, A. baumannii (fold increase in extracellular AK activity)",1.1
same,fold induction at 50 µM,"[5]; planktonic, cutoff for positive 3-fold increase, read-out: AK-based Prestwick Library Screening Results, P. aeruginosa (fold increase in extracellular AK activity)",1.1
same,fold induction at 50 µM,"[6]; planktonic, cutoff for positive 3-fold increase, read-out: AK-based Prestwick Library Screening Results, E. cloacae (fold increase in extracellular AK activity)",1.4
same,fold induction at 50 µM,"[7]; planktonic, cutoff for positive 3-fold increase, read-out: AK-based Prestwick Library Screening Results, E. coli (fold increase in extracellular AK activity)",1.1
CC(C)(CO)[C@@H](O)C(=O)NCCCO [Panthenol (D)],"AK-based Prestwick Library Screening Results, E. faecium (increase in extracellular AK activity)",[1]; [15],0.8
same,"AK-based Prestwick Library Screening Results, S. aureus (increase in extracellular AK activity)",[2]; [15],0.6
same,"AK-based Prestwick Library Screening Results, K. pneumoniae (increase in extracellular AK activity)",[3]; [15],0.7
same,"AK-based Prestwick Library Screening Results, A. baumannii (increase in extracellular AK activity)",[4]; [15],0.8
same,"AK-based Prestwick Library Screening Results, P. aeruginosa (increase in extracellular AK activity)",[5]; [15],0.7
same,"AK-based Prestwick Library Screening Results, E. cloacae (increase in extracellular AK activity)",[6]; [15],1.0
same,"AK-based Prestwick Library Screening Results, E. coli (increase in extracellular AK activity)",[7]; [15],0.9
CO[C@@]1(NC(=O)C(C(=O)O)c2ccc(O)cc2)C(=O)N2C(C(=O)O)=C(CSc3nnnn3C)CO[C@@H]21 (stereo partly shown) [Moxalactam disodium salt],fold induction at 50 µM,[1]; [16],1.3
same,fold induction at 50 µM,[2]; [17],4.4
same,fold induction at 50 µM,[3]; [18],3.9
same,fold induction at 50 µM,[4]; [19],0.6
same,fold induction at 50 µM,[5]; [20],0.6
same,fold induction at 50 µM,[6]; [21],0.8
same,fold induction at 50 µM,[7]; [22],18.1
Cc1noc(NS(=O)(=O)c2ccc(N)cc2)c1C [Sulfisoxazole],fold induction at 50 µM,"[1]; planktonic E. faecium, cutoff for positive-scoring molecules 3-fold increase, read-out: AK-based Prestwick Library Screening Results, E. faecium (increase in extracellular AK activity)",0.9
same,fold induction at 50 µM,"[2]; planktonic S. aureus, cutoff for positive-scoring molecules 3-fold increase, read-out: AK-based Prestwick Library Screening Results, S. aureus (increase in extracellular AK activity)",0.5
same,fold induction at 50 µM,"[3]; planktonic K. pneumoniae, cutoff for positive-scoring molecules 3-fold increase, read-out: AK-based Prestwick Library Screening Results, K. pneumoniae (increase in extracellular AK activity)",0.5
same,fold induction at 50 µM,"[4]; planktonic A. baumannii, cutoff for positive-scoring molecules 3-fold increase, read-out: AK-based Prestwick Library Screening Results, A. baumannii (increase in extracellular AK activity)",1
same,fold induction at 50 µM,"[5]; planktonic P. aeruginosa, cutoff for positive-scoring molecules 3-fold increase, read-out: AK-based Prestwick Library Screening Results, P. aeruginosa (increase in extracellular AK activity)",0.6
same,fold induction at 50 µM,"[6]; planktonic E. cloacae, cutoff for positive-scoring molecules 3-fold increase, read-out: AK-based Prestwick Library Screening Results, E. cloacae (increase in extracellular AK activity)",0.7
same,fold induction at 50 µM,"[7]; planktonic E. coli, cutoff for positive-scoring molecules 3-fold increase, read-out: AK-based Prestwick Library Screening Results, E. coli (increase in extracellular AK activity)",0.7
NS(=O)(=O)c1cc(Cl)c(Cl)c(S(N)(=O)=O)c1 [Dichlorphenamide],fold induction at 50 µM,[1]; [16],1.1
same,fold induction at 50 µM,[2]; [17],0.5
same,fold induction at 50 µM,[3]; [18],0.5
same,fold induction at 50 µM,[4]; [19],0.5
same,fold induction at 50 µM,[5]; [20],0.5
same,fold induction at 50 µM,[6]; [21],0.5
same,fold induction at 50 µM,[7]; [22],0.6
